According to US20060252683A1, “Preparation of a peptide compound (SYRAPRO-2000) and its use for the activation of protein phosphatase-2A1 enzyme” (priority 2005, published 2006):

Legend:
protein phosphatase-2A1 [1] = molecular target: T1, protein phosphatase-2A1 (Homo sapiens, UniProt P67775); experiment: Assay of purified protein phosphatase-2A1 in vitro with 32P-labeled phosphorylase a as substrate; assay type: biochemical; set-up: Protein phosphatase-2A1 purified from CD^4+ T cells as described in materials and method; endogenous in cells; host or cells: Jurkat cells; enzyme purified by DEAE Sepharose, Sephacryl S-300 HR and poly-L-lysine Agarose; settings: highly purified enzyme from Jurkat cells
Description: Protein phosphatase-2A1 purified from CD^4+ T cells as described in materials and method was assayed in the presence of various concentrations of SYRAPRO-2000. 100 percent protein phosphatase-2A1 activity is equivalent to 0.005 unit. Similar result were obtained in 3 independent experiments.
The effect of synthesized SYRAPRO-2000 on purified protein phosphatase-2A1 can be determined in vitro. Protein phosphatase-2A1 can be assayed using ^32P-labeled phosphorylase a as substrate in the presence of various concentrations of SYRAPRO-2000. Protein phosphatase-2A1 is activated in the presence of SYRAPRO-2000.
Protein phosphatase-1 was assayed as described in (Cohen 1988). Protein phosphatase-2B was assayed as described in (Tung 1986). Protein phosphatase-2C was assayed as described in (Tung 1986) except Ca^2+ and calmodulin were omitted. The assay of protein phosphatases-2A1 consisted of 0.02 ml of enzyme solution in 50 mM Imidazole-Cl pH 7.2, 0.2 mM EGTA, 0.1% (v/v) 2-mercaptoethanol and 1 mg/ml bovine serum albumin (Assay Buffer), 0.01 ml of inhibitor-2 at 600 nM in Assay Buffer, 0.01 ml of protamine at 60 μg/ml in Assay Buffer or 0.01 ml of SYRAPRO-2000 at different concentrations in Assay Buffer or 0.01 ml of Assay Buffer alone, 0.02 ml of ^32P-labeled phosphorylase a at 3 mg/ml in Assay Buffer containing 15 mM caffeine. The assay components were preincubated for 10 minutes prior to initiating the reaction with ^32P-labeled phosphorylase a. One unit of protein phosphatase activity is that amount of enzyme which catalyzes the release of 1 nmol of phosphate from ^32P-labeled substrate per min at 30° C.
Jurkat cells, a human transformed CD^4+ T cell line, were grown in grown in RPMI 1680 supplemented with 5% (v/v) fetal bovine serum at 37° C. in 95% air/5% CO2 in a humidified incubator. 2.4 liters of cells were collected by centrifugation at 4200 rpm in a low speed centrifuge for 10 minutes. The cells were homogenized in 80 ml of 50 mM Imidazole-Cl pH 7.2, 2 mM EGTA, 2 mM EDTA, 0.1% (v/v) 2-mercaptoethanol, 0.2 mM PMSF, 1 mM benzamidine, 4 μg/ml aprotinin, 4 μg/ml leupeptin, 4 μg/ml pepstatin, 0.1 mM TLCK, 0.1 mM TPCK, 1 mM sodium orthovanadate and 10% (v/v) glycerol by 40 strokes in a glass hand held homogenizer. The homogenate was centrifuged at 29000 rpm in a high speed centrifuge for 30 minutes. The supernatant (i.e the extract) was collected and loaded onto a DEAE Sepharose column (1.5×6 cm) equilibrated in 25 mM Imidazole-Cl pH 7.2, 0.2 mM EGTA, 0.1% (v/v) 2-mercaptoethanol, 0.1 mM PMSF, 1 mM benzamidine and 10% (v/v) glycerol (Buffer A). The column was washed with 50 ml of Buffer and then eluted with a 200 ml linear gradient of Buffer A to Buffer A plus 0.4 M NaCl. The eluted fractions were then assayed for phosphorylase phosphatase activity in the presence of 100 nM inhibitor-2 and 10 μg/ml of protamine. Two major peaks of phosphorylase phosphatase were observed. The first and second peak represent protein phosphatase-2A0 and protein phosphatase-2A1 respectively. […] The major activity eluting as a species of apparent molecular mass 300 kDa was collected, diluted four fold in Buffer A and loaded onto a poly-L-lysine Agarose Column (1.5×4 cm) equilibrated in Buffer A. The column was washed with 50 ml of Buffer A and then eluted with a 200 ml linear gradient of Buffer A to Buffer A plus 0.5 M NaCl. The active fractions eluting at ˜0.30 M NaCl salt concentration was pooled, concentrated by vacuum dialysis and stored at ^−20° C. in 50 mM Imidazole-Cl pH 7.2, 0.2 mM EGTA in the presence of 50% (v/v) glycerol. The highly purified enzyme consisted of the characteristic subunits of protein phosphatase-2A1, namely the A, B and C subunits. […] It is difficult to determine the activity of protein phosphatase-2A1 in CD^4+ T cell extract. However, assuming that it represented about 66 percent of total type 2A protein phosphatase activity in CD^4+ T cell extract, the specific activity of the enzyme in extract was estimated to be 0.3 unit/mg. […]
Target sequence in this assay (P67775 whole entry): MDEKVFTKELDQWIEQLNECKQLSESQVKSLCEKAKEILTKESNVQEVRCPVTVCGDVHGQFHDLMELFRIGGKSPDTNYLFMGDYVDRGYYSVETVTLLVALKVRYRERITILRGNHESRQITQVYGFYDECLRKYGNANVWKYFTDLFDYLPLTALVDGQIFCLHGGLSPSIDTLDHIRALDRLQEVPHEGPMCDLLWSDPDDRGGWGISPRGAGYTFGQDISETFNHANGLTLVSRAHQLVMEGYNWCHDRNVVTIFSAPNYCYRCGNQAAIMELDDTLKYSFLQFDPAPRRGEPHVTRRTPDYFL
Target sequence in this assay (P30153 whole entry partner): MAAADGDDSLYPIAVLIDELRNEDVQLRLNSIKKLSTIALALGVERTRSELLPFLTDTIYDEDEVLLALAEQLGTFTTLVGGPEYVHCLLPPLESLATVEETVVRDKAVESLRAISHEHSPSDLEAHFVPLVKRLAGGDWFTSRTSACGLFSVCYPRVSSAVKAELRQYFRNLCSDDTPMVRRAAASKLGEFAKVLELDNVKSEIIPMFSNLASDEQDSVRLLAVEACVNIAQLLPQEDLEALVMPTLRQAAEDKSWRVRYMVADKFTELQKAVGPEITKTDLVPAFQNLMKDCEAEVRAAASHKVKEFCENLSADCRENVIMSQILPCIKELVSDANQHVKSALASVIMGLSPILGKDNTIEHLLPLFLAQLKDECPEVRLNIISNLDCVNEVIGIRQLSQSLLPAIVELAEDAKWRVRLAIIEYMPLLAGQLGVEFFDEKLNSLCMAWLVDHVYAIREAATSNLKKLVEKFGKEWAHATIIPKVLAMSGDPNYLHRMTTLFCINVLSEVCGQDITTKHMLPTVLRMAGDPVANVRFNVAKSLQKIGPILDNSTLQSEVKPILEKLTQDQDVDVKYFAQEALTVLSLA
Target sequence in this assay (P63151 whole entry partner): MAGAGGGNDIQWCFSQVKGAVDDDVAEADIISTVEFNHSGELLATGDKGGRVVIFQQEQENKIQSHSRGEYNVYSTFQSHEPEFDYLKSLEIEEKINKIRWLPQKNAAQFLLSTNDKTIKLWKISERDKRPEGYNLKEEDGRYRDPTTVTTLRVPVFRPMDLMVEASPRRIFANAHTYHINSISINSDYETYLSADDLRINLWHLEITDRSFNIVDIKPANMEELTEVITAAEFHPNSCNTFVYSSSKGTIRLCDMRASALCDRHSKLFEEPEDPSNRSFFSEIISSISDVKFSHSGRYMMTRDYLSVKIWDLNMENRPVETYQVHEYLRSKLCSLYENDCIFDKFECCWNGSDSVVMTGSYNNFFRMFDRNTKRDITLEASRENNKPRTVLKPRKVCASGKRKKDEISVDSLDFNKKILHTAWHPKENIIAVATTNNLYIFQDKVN

protein phosphatase-2A1 [2] = molecular target: T1, protein phosphatase-2A1; settings: Tung 1997; Janoo 2005; cited from earlier work
Target sequence in this assay (P67775 whole entry): as the sequence (P67775 whole entry) above

C=C1[C@@H](O)[C@@H]2O[C@]3(CC[C@H](/C=C/[C@@H](C)[C@@H]4CC(C)=C[C@@]5(O[C@H](C[C@@](C)(O)C(=O)O)CC[C@H]5O)O4)O3)CC[C@H]2O[C@@H]1[C@@H](O)C[C@H](C)[C@H]1O[C@@]2(CCCCO2)CC[C@H]1C [okadaic acid, reference compound]
effect on protein phosphatase-2A1 from CD4+ T cells (protein phosphatase-2A1 [1]): inhibited

full length HIV-1 Vpr: full length HIV-1 Vpr protein, tested in the literature
activation of protein phosphatase-2A1 (protein phosphatase-2A1 [2]): not to activate

protamine [reference compound]
effect on protein phosphatase-2A1 from CD4+ T cells (protein phosphatase-2A1 [1]): activated

B1: inhibitor-2: Protein phosphatase-1 inhibitor-2 purified from rabbit skeletal muscle (protein, UniProt P11845 2-205, looked up)
Protein phosphatase inhibitor …: AASTASHRPIKGILKNKTSSTSSRVASAEQPRGSVDEELSKKSQKWDEMNILATYHPADKDYGLMKIDEPSTPYHSMIGDDDDAYSDTETTEAMTPDTLAKKLAAAEGSEPKYRIREQESSGEEDSDLSPEEREKKRQFEMKRKLHYNEGLNIKLARQLISKDLHDDEEDEEMSETADGESMNTEESNQGSTPSDQRQNKSQSS
effect on protein phosphatase-2A1 from CD4+ T cells (protein phosphatase-2A1 [1]): not inhibited
